“Also recorded” adds a separate entry of the source. Where two headings read alike, the source gives them in different places.
What was measured:
[1] = human, in vivo
[2] = pharmacokinetics reported as unaffected; cited from earlier work
clinical = conditions: female, human, in vivo, po

For `C#C[C@]1(O)CC[C@H]2[C@@H]3CCC4=CC(=O)CC[C@@H]4[C@H]3CC[C@@]21C` [norethindrone], the “increase in AUC0-24” value ([1]; female) was 50%, the “increase in AUC0-∞” value ([1]; female) was 35% and the Cmax ([1]; female, po, 0.35 mg) was 2.09 (1.49-3.06) ng/mL. The CL/F ([1]; po) was 7.59 (6.22-10.00) L/hr, the CL/F ([1]; po, 0.35 mg) was 10.35 (8.55-12.38) L/hr and the “decrease in AUC with obesity (trend)” value [2] was ~ 20%. The “decrease in Cmax with obesity (trend)” value [2] was ~ 20%, the Tmax (clinical) was 1.32 h and the Vd/F (clinical) was 313 L. The AUC(0-inf) (clinical; 0.35 mg) was 33.8 ng·h/mL, the AUC(0-t) (clinical; 0.35 mg) was 16.7 ng·h/mL and the Tmax (clinical; 0.35 mg) was 1.86 h. The Vd/F (clinical; 0.35 mg) was 564 L, the adverse events (either group (control and treatment)) was “no reports of adverse events” and the concentration at 24 h (female, human, in vivo, po, 0.35 mg) was 0.27 ng/mL. For the same molecule, the change in half-life (treatment group compared to control group) was “unaltered; also recorded: no alteration; also recorded: no change”.
